In ChEMBL document CHEMBL1128809 (Bioorg Med Chem Lett, 1995):

Target: Protein kinase C eta type (Homo sapiens, UniProt P24723)
Assay: Inhibition of Protein kinase C eta
Conditions: not given

Sequence of Protein kinase C eta type (P24723 whole entry): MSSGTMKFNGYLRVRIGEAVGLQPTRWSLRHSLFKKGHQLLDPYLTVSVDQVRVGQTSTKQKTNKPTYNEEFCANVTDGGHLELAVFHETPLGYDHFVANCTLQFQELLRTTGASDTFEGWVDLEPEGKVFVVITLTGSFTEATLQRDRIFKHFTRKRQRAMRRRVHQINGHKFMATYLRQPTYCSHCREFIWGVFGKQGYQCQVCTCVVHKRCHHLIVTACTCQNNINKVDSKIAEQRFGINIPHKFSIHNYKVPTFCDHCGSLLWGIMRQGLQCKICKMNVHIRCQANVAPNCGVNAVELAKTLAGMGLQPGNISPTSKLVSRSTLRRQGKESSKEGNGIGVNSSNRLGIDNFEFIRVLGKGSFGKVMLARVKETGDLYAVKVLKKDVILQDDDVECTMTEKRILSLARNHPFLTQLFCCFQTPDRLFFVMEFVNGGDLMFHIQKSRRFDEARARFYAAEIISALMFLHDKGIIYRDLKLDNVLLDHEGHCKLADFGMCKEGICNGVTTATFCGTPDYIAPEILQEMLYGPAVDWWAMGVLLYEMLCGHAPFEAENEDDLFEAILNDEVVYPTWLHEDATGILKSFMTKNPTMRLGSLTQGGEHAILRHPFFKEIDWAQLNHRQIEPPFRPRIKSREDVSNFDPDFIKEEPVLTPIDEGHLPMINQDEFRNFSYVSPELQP

Row | SMILES | IC50 [nM]
1 | CN(C(=O)c1cc(O)c(C(=O)c2c(O)cccc2C(=O)O)c(O)c1)[C@H]1CCCNC[C@H]1NC(=O)c1ccc(O)cc1 | 31000
2 | O=C(NC[C@@H]1CCC[C@H]1NC(=O)c1ccc(O)cc1)c1cc(O)c(C(=O)c2c(O)cccc2C(=O)O)c(O)c1 | 2300
3 | O=C(N[C@@H]1CCC[C@H]1OCc1cc(O)c(C(=O)c2c(O)cccc2C(=O)O)c(O)c1)c1ccc(O)cc1 | 30
4 | C[C@@]1(OC(=O)c2cc(O)c(C(=O)c3c(O)cccc3C(=O)O)c(O)c2)CCCNC[C@H]1NC(=O)c1ccc(O)cc1 | 20
5 | O=C(N[C@@H]1CCC[C@H]1OC(=O)c1cc(O)c(C(=O)c2c(O)cccc2C(=O)O)c(O)c1)c1ccc(O)cc1 | 1

Target: Protein kinase C alpha type (Homo sapiens, UniProt P17252)
Assay: Inhibition of Protein kinase C alpha
Conditions: not given

Row | SMILES | IC50 [nM]
6 | CN(C(=O)c1cc(O)c(C(=O)c2c(O)cccc2C(=O)O)c(O)c1)[C@H]1CCCNC[C@H]1NC(=O)c1ccc(O)cc1 | > 50000
7 | O=C(NC[C@@H]1CCC[C@H]1NC(=O)c1ccc(O)cc1)c1cc(O)c(C(=O)c2c(O)cccc2C(=O)O)c(O)c1 | 35000
8 | O=C(N[C@@H]1CCC[C@H]1OCc1cc(O)c(C(=O)c2c(O)cccc2C(=O)O)c(O)c1)c1ccc(O)cc1 | 460
9 | C[C@@]1(OC(=O)c2cc(O)c(C(=O)c3c(O)cccc3C(=O)O)c(O)c2)CCCNC[C@H]1NC(=O)c1ccc(O)cc1 | 220

Target: T1, Protein kinase C beta type (Homo sapiens, UniProt P05771)
T1 sequence (P05771 whole entry): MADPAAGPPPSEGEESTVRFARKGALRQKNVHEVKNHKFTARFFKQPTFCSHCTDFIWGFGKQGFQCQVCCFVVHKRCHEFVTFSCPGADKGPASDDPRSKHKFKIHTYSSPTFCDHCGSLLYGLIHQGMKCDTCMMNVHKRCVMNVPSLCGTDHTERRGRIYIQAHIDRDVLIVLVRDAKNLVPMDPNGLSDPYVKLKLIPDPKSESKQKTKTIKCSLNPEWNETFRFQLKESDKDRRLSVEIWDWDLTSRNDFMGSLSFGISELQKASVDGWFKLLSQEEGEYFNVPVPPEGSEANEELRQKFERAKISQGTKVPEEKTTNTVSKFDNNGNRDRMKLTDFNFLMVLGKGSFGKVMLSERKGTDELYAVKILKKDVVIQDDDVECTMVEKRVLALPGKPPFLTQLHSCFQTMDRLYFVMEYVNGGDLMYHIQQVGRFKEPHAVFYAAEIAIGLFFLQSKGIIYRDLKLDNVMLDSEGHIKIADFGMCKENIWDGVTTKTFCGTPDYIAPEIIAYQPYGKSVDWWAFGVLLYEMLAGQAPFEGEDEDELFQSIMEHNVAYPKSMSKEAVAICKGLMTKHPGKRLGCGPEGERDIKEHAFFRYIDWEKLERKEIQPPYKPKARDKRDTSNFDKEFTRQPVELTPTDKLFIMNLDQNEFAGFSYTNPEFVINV
Assay: Inhibition of Protein kinase C beta 2
Conditions: not given

Row | SMILES | IC50 [nM]
10 | CN(C(=O)c1cc(O)c(C(=O)c2c(O)cccc2C(=O)O)c(O)c1)[C@H]1CCCNC[C@H]1NC(=O)c1ccc(O)cc1 | > 50000
11 | O=C(NC[C@@H]1CCC[C@H]1NC(=O)c1ccc(O)cc1)c1cc(O)c(C(=O)c2c(O)cccc2C(=O)O)c(O)c1 | 4900
12 | O=C(N[C@@H]1CCC[C@H]1OCc1cc(O)c(C(=O)c2c(O)cccc2C(=O)O)c(O)c1)c1ccc(O)cc1 | 290
13 | C[C@@]1(OC(=O)c2cc(O)c(C(=O)c3c(O)cccc3C(=O)O)c(O)c2)CCCNC[C@H]1NC(=O)c1ccc(O)cc1 | 70

Target: Protein kinase C gamma type (Homo sapiens, UniProt P05129)
Assay: Inhibition of Protein kinase C gamma
Conditions: not given

Row | SMILES | IC50 [nM]
14 | CN(C(=O)c1cc(O)c(C(=O)c2c(O)cccc2C(=O)O)c(O)c1)[C@H]1CCCNC[C@H]1NC(=O)c1ccc(O)cc1 | > 50000
15 | O=C(NC[C@@H]1CCC[C@H]1NC(=O)c1ccc(O)cc1)c1cc(O)c(C(=O)c2c(O)cccc2C(=O)O)c(O)c1 | 46000
16 | O=C(N[C@@H]1CCC[C@H]1OCc1cc(O)c(C(=O)c2c(O)cccc2C(=O)O)c(O)c1)c1ccc(O)cc1 | 1100
17 | C[C@@]1(OC(=O)c2cc(O)c(C(=O)c3c(O)cccc3C(=O)O)c(O)c2)CCCNC[C@H]1NC(=O)c1ccc(O)cc1 | 40

Target: T1, Protein kinase C beta type
Assay: Inhibition of Protein kinase C beta 1
Conditions: not given

Row | SMILES | IC50 [nM]
18 | CN(C(=O)c1cc(O)c(C(=O)c2c(O)cccc2C(=O)O)c(O)c1)[C@H]1CCCNC[C@H]1NC(=O)c1ccc(O)cc1 | > 50000
19 | O=C(NC[C@@H]1CCC[C@H]1NC(=O)c1ccc(O)cc1)c1cc(O)c(C(=O)c2c(O)cccc2C(=O)O)c(O)c1 | 17000
20 | O=C(N[C@@H]1CCC[C@H]1OCc1cc(O)c(C(=O)c2c(O)cccc2C(=O)O)c(O)c1)c1ccc(O)cc1 | 430
21 | C[C@@]1(OC(=O)c2cc(O)c(C(=O)c3c(O)cccc3C(=O)O)c(O)c2)CCCNC[C@H]1NC(=O)c1ccc(O)cc1 | 120

Target: T2, Protein kinase C zeta type (Homo sapiens, UniProt Q05513)
T2 sequence (Q05513 whole entry): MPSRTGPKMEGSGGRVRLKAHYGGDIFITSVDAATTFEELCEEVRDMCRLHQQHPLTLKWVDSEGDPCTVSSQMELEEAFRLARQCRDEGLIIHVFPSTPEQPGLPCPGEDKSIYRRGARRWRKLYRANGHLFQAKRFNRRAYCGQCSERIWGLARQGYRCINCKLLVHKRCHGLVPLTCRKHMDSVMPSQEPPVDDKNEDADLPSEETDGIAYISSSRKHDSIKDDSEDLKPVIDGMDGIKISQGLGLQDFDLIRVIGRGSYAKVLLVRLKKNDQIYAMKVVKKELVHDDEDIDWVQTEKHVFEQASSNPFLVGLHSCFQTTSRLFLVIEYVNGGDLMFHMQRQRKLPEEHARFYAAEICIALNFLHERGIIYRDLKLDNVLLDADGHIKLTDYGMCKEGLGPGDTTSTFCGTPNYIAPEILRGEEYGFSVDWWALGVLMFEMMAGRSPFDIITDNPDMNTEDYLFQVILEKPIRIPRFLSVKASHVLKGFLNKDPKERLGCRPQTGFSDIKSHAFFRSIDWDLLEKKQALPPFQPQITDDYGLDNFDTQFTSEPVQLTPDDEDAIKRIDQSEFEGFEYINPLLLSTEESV
Assay: Inhibition of Protein kinase C zeta
Conditions: not given

Row | SMILES | IC50 [nM]
22 | CN(C(=O)c1cc(O)c(C(=O)c2c(O)cccc2C(=O)O)c(O)c1)[C@H]1CCCNC[C@H]1NC(=O)c1ccc(O)cc1 | > 50000
23 | O=C(NC[C@@H]1CCC[C@H]1NC(=O)c1ccc(O)cc1)c1cc(O)c(C(=O)c2c(O)cccc2C(=O)O)c(O)c1 | > 50000
24 | O=C(N[C@@H]1CCC[C@H]1OCc1cc(O)c(C(=O)c2c(O)cccc2C(=O)O)c(O)c1)c1ccc(O)cc1 | > 50000

Target: Protein kinase C delta type (Homo sapiens, UniProt Q05655)
Sequence (Q05655 whole entry): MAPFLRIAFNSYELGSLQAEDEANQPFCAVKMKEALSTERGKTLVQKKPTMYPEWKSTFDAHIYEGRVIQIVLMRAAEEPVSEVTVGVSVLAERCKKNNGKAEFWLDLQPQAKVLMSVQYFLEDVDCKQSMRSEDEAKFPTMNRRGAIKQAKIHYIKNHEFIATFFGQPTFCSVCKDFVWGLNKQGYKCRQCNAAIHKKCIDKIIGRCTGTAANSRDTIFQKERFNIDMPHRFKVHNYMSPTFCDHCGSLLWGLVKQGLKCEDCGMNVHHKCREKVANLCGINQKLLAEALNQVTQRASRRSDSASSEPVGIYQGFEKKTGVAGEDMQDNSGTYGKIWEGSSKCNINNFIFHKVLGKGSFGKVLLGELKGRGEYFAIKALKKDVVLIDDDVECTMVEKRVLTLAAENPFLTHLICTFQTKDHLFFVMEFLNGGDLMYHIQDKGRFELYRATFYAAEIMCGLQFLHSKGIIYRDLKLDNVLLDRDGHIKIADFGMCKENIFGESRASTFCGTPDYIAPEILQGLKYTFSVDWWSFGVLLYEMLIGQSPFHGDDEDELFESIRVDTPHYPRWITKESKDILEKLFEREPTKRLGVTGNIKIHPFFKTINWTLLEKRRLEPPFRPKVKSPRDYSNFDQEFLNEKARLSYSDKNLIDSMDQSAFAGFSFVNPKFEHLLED
Assay: Inhibition of Protein kinase C delta
Conditions: not given

Row | SMILES | IC50 [nM]
25 | CN(C(=O)c1cc(O)c(C(=O)c2c(O)cccc2C(=O)O)c(O)c1)[C@H]1CCCNC[C@H]1NC(=O)c1ccc(O)cc1 | 42000
26 | O=C(NC[C@@H]1CCC[C@H]1NC(=O)c1ccc(O)cc1)c1cc(O)c(C(=O)c2c(O)cccc2C(=O)O)c(O)c1 | 330
27 | O=C(N[C@@H]1CCC[C@H]1OCc1cc(O)c(C(=O)c2c(O)cccc2C(=O)O)c(O)c1)c1ccc(O)cc1 | 20
28 | C[C@@]1(OC(=O)c2cc(O)c(C(=O)c3c(O)cccc3C(=O)O)c(O)c2)CCCNC[C@H]1NC(=O)c1ccc(O)cc1 | 30
29 | O=C(N[C@@H]1CCC[C@H]1OC(=O)c1cc(O)c(C(=O)c2c(O)cccc2C(=O)O)c(O)c1)c1ccc(O)cc1 | 1

Target: T3, Protein kinase C epsilon type (Homo sapiens, UniProt Q02156)
T3 sequence (Q02156 whole entry): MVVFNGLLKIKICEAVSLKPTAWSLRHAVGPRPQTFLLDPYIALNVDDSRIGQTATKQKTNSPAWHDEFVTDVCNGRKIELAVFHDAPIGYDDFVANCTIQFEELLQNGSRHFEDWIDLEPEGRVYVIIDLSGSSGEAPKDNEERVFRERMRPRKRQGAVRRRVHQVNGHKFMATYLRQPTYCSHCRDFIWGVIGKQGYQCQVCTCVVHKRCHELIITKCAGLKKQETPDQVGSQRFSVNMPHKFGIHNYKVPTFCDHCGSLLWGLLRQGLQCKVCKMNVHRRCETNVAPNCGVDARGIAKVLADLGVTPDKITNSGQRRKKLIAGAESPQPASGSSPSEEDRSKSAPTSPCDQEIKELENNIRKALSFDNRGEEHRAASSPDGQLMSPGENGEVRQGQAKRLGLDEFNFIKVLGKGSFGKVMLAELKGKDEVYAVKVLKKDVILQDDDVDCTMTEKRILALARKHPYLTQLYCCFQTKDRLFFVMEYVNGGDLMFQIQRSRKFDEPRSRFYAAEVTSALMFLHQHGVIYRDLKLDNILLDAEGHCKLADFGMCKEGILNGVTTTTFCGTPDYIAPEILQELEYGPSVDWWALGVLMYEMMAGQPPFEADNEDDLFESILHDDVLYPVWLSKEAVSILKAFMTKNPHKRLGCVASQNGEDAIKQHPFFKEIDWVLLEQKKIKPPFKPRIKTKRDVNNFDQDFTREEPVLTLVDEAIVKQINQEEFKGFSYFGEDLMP
Assay: Inhibition of Protein kinase C epsilon
Conditions: not given

Row | SMILES | IC50 [nM]
30 | CN(C(=O)c1cc(O)c(C(=O)c2c(O)cccc2C(=O)O)c(O)c1)[C@H]1CCCNC[C@H]1NC(=O)c1ccc(O)cc1 | > 50000
31 | O=C(NC[C@@H]1CCC[C@H]1NC(=O)c1ccc(O)cc1)c1cc(O)c(C(=O)c2c(O)cccc2C(=O)O)c(O)c1 | > 50000
32 | O=C(N[C@@H]1CCC[C@H]1OCc1cc(O)c(C(=O)c2c(O)cccc2C(=O)O)c(O)c1)c1ccc(O)cc1 | 370
33 | C[C@@]1(OC(=O)c2cc(O)c(C(=O)c3c(O)cccc3C(=O)O)c(O)c2)CCCNC[C@H]1NC(=O)c1ccc(O)cc1 | 50

System: not listed separately
Assay: Stability in human plasma 2 hr after incubation expressed as percent concentration
Format: ADME, cell-free
Conditions: read-out: Concentration

Row | SMILES | remaining at 2 h [%]
34 | O=C(N[C@@H]1CCC[C@H]1OCc1cc(O)c(C(=O)c2c(O)cccc2C(=O)O)c(O)c1)c1ccc(O)cc1 | 100

System: not listed separately
Assay: Stability in human plasma 4 hr after incubation expressed as percent concentration
Format: ADME, cell-free
Conditions: read-out: Concentration

Row | SMILES | remaining at 4 h [%]
35 | O=C(N[C@@H]1CCC[C@H]1OCc1cc(O)c(C(=O)c2c(O)cccc2C(=O)O)c(O)c1)c1ccc(O)cc1 | 100
